Results as given in publication PMC6895199, “A new antiviral scaffold for human norovirus identified with computer-aided approaches on the viral polymerase” (Scientific Reports, 2019).
Where “and” joins values, the source holds several entries; their conditions need not be identical. Identical values can stand only once. Like-named read-outs stand apart in the source and are kept apart here.

Legend:
[1] = similar MNV cell-based assay; cited from earlier work
[2] = tested on: HuNoV (GII.4) RdRp; test: Counter-screen gel-shift assay of primed elongation activity (PE44-NoV template); assay type: biochemical, human norovirus; conditions: fixed concentration of 100 μM
Protocol: To further confirm RdRp inhibition and exclude any potential false positives from the first fluorescence RdRp assay, the eight molecules were then assessed using a gel-shift enzyme activity assay at a fixed concentration of 100 μM, following a procedure previously adopted by our research group.
Figure 5 A counter-screen gel-shift assay was used to confirm HuNoV (GII.4) RdRp inhibitory activity of compounds 2, 3, 34 and 35 (A), 4, 5, 6 (B) and 7 (C). The eight compounds were examined for inhibition of primed elongation activity. PE44-NoV RNA templates (32 nucleotides) were extended (44 nucleotides) by the RdRp in the absence of any test compounds (0.5% DMSO [vol/vol] negative control) or with test compounds at a fixed concentration of 100 μM. […] Full-length gels are presented in Supplementary Fig. S3.
Fluorescent RdRp activity assays were carried out as previously described[12],[29]. Briefly, RdRp activity was quantified by monitoring the formation of double-stranded RNA (dsRNA) from a single stranded homopolymeric template, poly(C) (Sigma Aldrich), using the fluorescent dye PicoGreen (Life Technologies, Carlsbad, CA, USA). RdRp assays were performed in 384-well plates, and each reaction mixture contained 400 ng enzyme, 45 μM GTP, 10 ng/μL poly(C) RNA, 2.5 mM MnCl2, 5 mM dithiothreitol, (DTT), 0.01% bovine serum albumin (BSA), and 0.005% Tween 20 in 20 mM Tris-HCl, pH 7.5, with a final reaction volume of 25 μL. The PPNDS and compound 1 were used as a positive controls. RdRps were incubated for 10 mins at 30 °C in the presence of the test compounds or the compound vehicle DMSO (0.5% vol/vol) before addition into the reaction mixture, which was then allowed to run 15 min at 30 °C then terminated with 10 mM EDTA, followed by PicoGreen staining and dsRNA quantitation. GraphPad Prism V6.05 (La Jolla, CA, USA) was used to plot the IC50 values. A secondary gel-based polymerase activity assay was used as a counter-screen as described below, to exclude the possibility of RdRp activity enhancement. Primed elongation activity was examined in a gel-based assay as previously described[12],[29] using the RNA template (PE44-NoV). Gels were imaged using BioRad (Hercules, CA, U.SA) Geldoc Universal Hood II, running BioRad Image Lab software, V4.1, build 16.

[3] = tested on: MNV; test: MNV CPE reduction assay (MTS) in RAW 264.7 cells; assay type: cell-based, mouse norovirus (MNV-1.CW1); conditions: Norovirus, RAW264.7, in Mus musculus, Table 2, RAW 264.7, range 0.6–100 µM, at least three independent experiments
Procedure, shortened: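 MNV-1.CW1-infected RAW 264.7 cells treated at eight concentrations (0.6–100 µM), 2′-C-methylcytidine as positive control. Viability read by MTS/PMS at OD 498 nm after 2 h; %CPE reduction normalised to uninfected and infected untreated cells, EC50 = concentration protecting 50% of cells from virus-induced CPE.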

[4] = Crystal formation seen in the cell-based assays; assay type: physicochemical; conditions: observed with the HuNoV GI replicon results
[5] = tested on: HuNoV GI.1 replicon; test: HuNoV GI replicon assay (HGT-NV cells, qRT-PCR); assay type: cell-based, human norovirus GI.1
Protocol: Given that in this system the gene encoding for the major capsid protein is replaced by a neomycin resistance gene, no new virus particles will be produced but the non-structural proteins are expressed and the replication of the genomic RNA can be studied.
Cells and virus: MNV (virus strain MNV-1.CW1) was propagated in RAW 264.7 cells grown in DMEM (Life Technologies, Gent, Belgium) supplemented with 10% or 2% FBS, 2 mM L-glutamine, 20 mM HEPES, 0.075 g/L sodium bicarbonate, 1 mM sodium pyruvate, 100 U penicillin/mL and 100 µg/mL streptomycin at 37 °C in a humidified atmosphere of 5% CO2. The human norovirus GI.1 replicon harboring gastric tumor-1 cell line (HGT-NV) (kindly provided by Dr. Ian Goodfellow, University of Cambridge) was maintained in DMEM supplemented with 10% FBS, 2mM L-glutamine, 0.075 g/L sodium bicarbonate and 1.0 mg/ml of Geneticin (G418; Life Technologies), at 37 °C in a humidified atmosphere of 5% CO2[34].
Antiviral assay with the HGT-NV replicon: The inhibitory effect of Compounds on human norovirus replication was assessed by quantification of the levels of HuNoV GI replicon RNA and of the reference (housekeeping) gene β-actin mRNA [by quantitative reverse transcription polymerase chain reaction (qRT-PCR)]. To this end, HGT cells (2000 cells/well) were seeded in 96-well plates, in complete DMEM without the selection marker G418. Following an incubation period of 24 h, a serial dilution of rupintrivir was added to the cultures. After 72 h of incubation, cell monolayers were washed with phosphate-buffered saline (PBS) and collected for quantification of RNA load by qRT-PCR. Intracellular RNA was extracted from cells using the cell-to-cDNA lysis buffer (Ambion, Life Technologies). For detection of HuNoV GI replicon RNA, forward (5′-CCG GCT ACC TGC CCA TTC-3′), reverse (5′-CCAGATCATCCTGATCGACAAG-3′) primers and probe (5′-FAM-ACATCGCATCGAGCGAGCACGTAC-TAMRA-3′) for the neomycin gene were used. For detection of β-actin mRNA, forward (5′-GGCATCCACGAAACTACCTT-3′), reverse (5′-AGCACTGTGTTGGCGTACAG-3′) primers and probe (5′-HEX-ATCATGAAGTGTGACGTGGACATCCG-BHQ1–3′) were used. One-step qRT-PCR was performed in a 20 µL reaction mixture containing 10 µl 2X iTaq Universal SYBR® Green one step reaction mix (Bio-rad, California, USA), 5.17 µl RNAse free water, 0.5 µl of iScript reverse transcriptase (Bio-rad, California, USA), 4 µl of the template RNA and either 300 nM of HuNoV GI replicon primers and probe, 300 nM of β-actin primers and 200 nM of probe. Cycling conditions were: reverse transcription at 50 °C for 10 min, initial denaturation at 95 °C for 3 min, followed by 40 cycles of denaturation at 95 °C for 15 s, annealing and extension at 60 °C for 30 seconds (Roche Lightcycler®96, Roche Diagnostics, Belgium). To determine the relative expression levels of HuNoV GI replicon RNA, β-actin was used as a normalizer and ratios were calculated using the Pfaffl method. The Expression Ratio (HuNoV GI Replicon/β-actin) was calculated as: Expression Ratio = (E HuNoV)^ΔCT, HuNoV (CC – TC)/(Eβ-actin)^ΔCT, β-actin (CC – TC), where E HuNoV and Eβ-actin represent the amplification efficiency (E = 10^–1/slope) for the HuNoV GI replicon and β-actin qRT-PCR reactions, respectively. ΔCT, HuNoV (CC – TC) is the Ct of untreated control cells (CC) minus the Ct of cells treated with a compound concentration (TC) obtained with HuNoV GI replicon primers and probe. ΔCT, β-actin (CC – TC) is the Ct of untreated control cells (CC) minus the Ct of cells treated with a compound concentration (TC) obtained with β-actin primers and probe. Efficiency values (E HuNoV and Eβ-actin) were determined for each qRT-PCR reaction.

[6] = Cytotoxicity by the MTS method on uninfected cells; assay type: cell-based; conditions: mouse, uninfected RAW 264.7 cells, Table 2, at least three independent experiments
Protocol: Cytotoxicity: The cytotoxicity of the Compounds was evaluated by the MTS method, by exposing uninfected cells to the same concentrations of compounds for 3 days. The %cell viability was calculated as (ODtreated/ODCC) × 100, where ODCC is the OD of uninfected untreated cells and ODtreated are uninfected cells treated with compound. The CC50 was defined as the compound concentration that reduces the number of viable cells by 50%[34].

| Structure (SMILES) | CC50 [1] | inhibition of primed elongation activity (gel-shift) [2] | EC50 [3] [µM] | concentration from which crystals form [4] [µM] | EC50 values (column head printed 'M') ([5]; HuNoV GI replicon in HGT-1 cells, 72 h, replicon RNA by qRT-PCR) | EC50 ([5]; Norwalk virus, HGT-1, 72 h, read-out: EC50 values (column head printed 'M'), HuNoV GI replicon in HGT-1 cells, replicon RNA by qRT-PCR) [µM] | EC50 ([5]; read-out: EC50 values (column head printed 'M'), HuNoV GI replicon in HGT-1 cells, 72 h, replicon RNA by qRT-PCR) [µM] | CC50 at 3 days [6] [µM] |
| --- | --- | --- | --- | --- | --- | --- | --- | --- |
| O=C1NN(c2ccccc2)C(=O)/C1=C/c1ccc(-c2ccc(S(=O)(=O)Nc3ccccc3)cc2)o1 [Compound 1] | ~64 µM and 62.8 µM | complete inhibition |  |  |  |  |  |  |
| O=C(NC(=S)Nc1ccc(N2CCN(S(=O)(=O)c3ccccc3)CC2)cc1)c1ccccc1 [Compound 60, N-((4-(4-(Phenylsulfonyl)piperazin-1-yl)phenyl)carbamothioyl)benzamide] |  |  | 66.6 ± 12.3 | ≥ 25 | low micromolar range | 8 | 8.5 ± 2.1 | > 100 |
